Measured values: PMC5218480 (PLoS ONE, 2017)

System: MV-4-11 cells
Test: Gene expression microarray analysis (Affymetrix PrimeView) and GSEA
Assay type: cell-based, human
Parameters: RFU PODN (11730768_x_at) / Fold change /veh PODN (11730768_x_at) / RFU LINC00158 (11744669_a_at) / Fold change /veh LINC00158 (11744669_a_at) / RFU DUSP10 (11751237_a_at) / Fold change /veh DUSP10 (11751237_a_at) / RFU ID3 (11757404_x_at) / Fold change /veh ID3 (11757404_x_at) / RFU PLEKHG5 (11737974_s_at) / Fold change /veh PLEKHG5 (11737974_s_at) / RFU LRRC4B (11730491_at) / Fold change /veh LRRC4B (11730491_at) / RFU GIMAP4 (11747438_a_at) / Fold change /veh GIMAP4 (11747438_a_at) / RFU KRT8 (11758183_x_at) / Fold change /veh KRT8 (11758183_x_at) / RFU CNN1 (11734310_a_at) / Fold change /veh CNN1 (11734310_a_at) / RFU VPS37D (11726825_at) / Fold change /veh VPS37D (11726825_at) / RFU C10orf10 (11716522_x_at) / Fold change /veh C10orf10 (11716522_x_at) / RFU KIR2DL2 /// KIR2DL4 /// KIR2DL5A /// KIR2DL5B /// KIR2DS1 /// KIR2DS2 /// KIR2DS3 /// KIR2DS4 /// KIR3DL3 /// KIR3DL3 /// KIR3DS1 (11738374_at) / Fold change /veh KIR2DL2 /// KIR2DL4 /// KIR2DL5A /// KIR2DL5B /// KIR2DS1 /// KIR2DS2 /// KIR2DS3 /// KIR2DS4 /// KIR3DL3 /// KIR3DL3 /// KIR3DS1 (11738374_at) / RFU C1QL1 (11718748_at) / Fold change /veh C1QL1 (11718748_at) / RFU TMPRSS4 (11747572_a_at) / Fold change /veh TMPRSS4 (11747572_a_at) / RFU HAMP (11756126_x_at) / Fold change /veh HAMP (11756126_x_at) / RFU RNFT2 (11725882_a_at) / Fold change /veh RNFT2 (11725882_a_at) / RFU NR4A2 (11747474_a_at) / Fold change /veh NR4A2 (11747474_a_at) / RFU ABCC12 (11746883_a_at) / Fold change /veh ABCC12 (11746883_a_at) / RFU TMEM136 (11760407_x_at) / Fold change /veh TMEM136 (11760407_x_at) / RFU CLDN22 /// WWC2 (11732394_at) / Fold change /veh CLDN22 /// WWC2 (11732394_at) / RFU HLA-DPB1 (11760878_x_at) / Fold change /veh HLA-DPB1 (11760878_x_at) / RFU SPINT1 (11716480_a_at) / Fold change /veh SPINT1 (11716480_a_at) / RFU GAP43 (11754022_s_at) / Fold change /veh GAP43 (11754022_s_at) / RFU A4GNT (11735810_at) / Fold change /veh A4GNT (11735810_at) / RFU PRB3 (11715151_x_at) / Fold change /veh PRB3 (11715151_x_at) / RFU TUBB4B (11761932_at) / Fold change /veh TUBB4B (11761932_at) / RFU CAPN14 (11732068_a_at) / Fold change /veh CAPN14 (11732068_a_at) / RFU TMCC2 (11721928_a_at) / Fold change /veh TMCC2 (11721928_a_at) / RFU IRGQ (11745062_a_at) / Fold change /veh IRGQ (11745062_a_at) / RFU FAM174B (11720279_a_at) / Fold change /veh FAM174B (11720279_a_at) / RFU TMPRSS4 (11748680_a_at) / Fold change /veh TMPRSS4 (11748680_a_at) / RFU FAM212B (11763350_a_at) / Fold change /veh FAM212B (11763350_a_at) / RFU PLEKHG5 (11743358_a_at) / Fold change /veh PLEKHG5 (11743358_a_at) / RFU ZSCAN30 (11745921_a_at) / Fold change /veh ZSCAN30 (11745921_a_at) / RFU CMKLR1 (11741424_a_at) / Fold change /veh CMKLR1 (11741424_a_at) / RFU LOC101060620 /// MAPK8IP1 (11723275_at) / Fold change /veh LOC101060620 /// MAPK8IP1 (11723275_at) / RFU SPTSSB (11747773_x_at) / Fold change /veh SPTSSB (11747773_x_at) / RFU PRSS12 (11739890_at) / Fold change /veh PRSS12 (11739890_at) / RFU BIN1 (11741810_x_at) / Fold change /veh BIN1 (11741810_x_at) / RFU WNT11 (11732464_a_at) / Fold change /veh WNT11 (11732464_a_at) / RFU C10orf10 (11716521_a_at) / Fold change /veh C10orf10 (11716521_a_at) / RFU C5orf56 (11738089_at) / Fold change /veh C5orf56 (11738089_at) / RFU CYB561 (11721691_x_at) / Fold change /veh CYB561 (11721691_x_at) / RFU ANKRD19P (11752326_a_at) / Fold change /veh ANKRD19P (11752326_a_at) / RFU OR2T12 /// OR2T33 /// OR2T8 (11738714_s_at) / Fold change /veh OR2T12 /// OR2T33 /// OR2T8 (11738714_s_at) / RFU VCAN (11748164_a_at) / Fold change /veh VCAN (11748164_a_at) / RFU JSRP1 (11732532_at) / Fold change /veh JSRP1 (11732532_at) / RFU KRTAP10-11 (11738290_x_at) / Fold change /veh KRTAP10-11 (11738290_x_at) / RFU MYO3A (11730013_a_at) / Fold change /veh MYO3A (11730013_a_at) / RFU EBF3 (11725865_a_at) / Fold change /veh EBF3 (11725865_a_at) / RFU CAMK2N1 (11719241_x_at) / Fold change /veh CAMK2N1 (11719241_x_at) / RFU C5orf56 (11738088_a_at) / Fold change /veh C5orf56 (11738088_a_at) / RFU OLFML3 (11715873_a_at) / Fold change /veh OLFML3 (11715873_a_at) / RFU LOC100653217 /// NTM (11731650_a_at) / Fold change /veh LOC100653217 /// NTM (11731650_a_at) / RFU MAPK11 (11762145_a_at) / Fold change /veh MAPK11 (11762145_a_at) / RFU FIZ1 (11724087_x_at) / Fold change /veh FIZ1 (11724087_x_at) / RFU OASL (11726364_x_at) / Fold change /veh OASL (11726364_x_at) / RFU SOX15 (11748057_x_at) / Fold change /veh SOX15 (11748057_x_at) / RFU CD79A (11719716_a_at) / Fold change /veh CD79A (11719716_a_at) / RFU HIST1H1D (11736915_at) / Fold change /veh HIST1H1D (11736915_at) / RFU CASKIN2 (11723855_a_at) / Fold change /veh CASKIN2 (11723855_a_at) / RFU LOC730098 (11760151_x_at) / Fold change /veh LOC730098 (11760151_x_at) / RFU OR4N2 (11742367_at) / Fold change /veh OR4N2 (11742367_at) / RFU PRRT2 (11749266_a_at) / Fold change /veh PRRT2 (11749266_a_at) / RFU SNX32 (11753110_a_at) / Fold change /veh SNX32 (11753110_a_at) / RFU CDHR5 (11726645_a_at) / Fold change /veh CDHR5 (11726645_a_at) / RFU RCAN1 (11760418_a_at) / Fold change /veh RCAN1 (11760418_a_at) / RFU FAM167A (11723789_a_at) / Fold change /veh FAM167A (11723789_a_at) / RFU FAM26E (11764081_at) / Fold change /veh FAM26E (11764081_at) / RFU ISYNA1 (11749810_s_at) / Fold change /veh ISYNA1 (11749810_s_at) / RFU ACY1 (11761880_at) / Fold change /veh ACY1 (11761880_at) / RFU 11764098_at / Fold change /veh 11764098_at / RFU SAMD14 (11745864_x_at) / Fold change /veh SAMD14 (11745864_x_at) / RFU NPB (11741838_a_at) / Fold change /veh NPB (11741838_a_at) / RFU TMPRSS6 (11731388_a_at) / Fold change /veh TMPRSS6 (11731388_a_at) / RFU KRTAP10-2 (11738614_at) / Fold change /veh KRTAP10-2 (11738614_at) / RFU ARHGAP8 /// PRR5-ARHGAP8 (11727945_x_at) / Fold change /veh ARHGAP8 /// PRR5-ARHGAP8 (11727945_x_at) / RFU KRTAP5-7 /// NADSYN1 (11734609_at) / Fold change /veh KRTAP5-7 /// NADSYN1 (11734609_at) / RFU RASL12 (11751679_a_at) / Fold change /veh RASL12 (11751679_a_at) / RFU CDKN2B (11736163_a_at) / Fold change /veh CDKN2B (11736163_a_at) / RFU PRF1 (11729649_at) / Fold change /veh PRF1 (11729649_at) / RFU, ZNF638 /// ZNF638-IT1 / Fold change vs veh, ZNF638 /// ZNF638-IT1 / RFU, PANK3 / Fold change vs veh, PANK3 / RFU, SH3YL1 / Fold change vs veh, SH3YL1 / RFU, ZEB2 / Fold change vs veh, ZEB2 / RFU, NRIP1 / Fold change vs veh, NRIP1 / RFU, PTTG1IP / Fold change vs veh, PTTG1IP / RFU, CAPN2 / Fold change vs veh, CAPN2 / RFU, MED14 / Fold change vs veh, MED14 / RFU, SNORA58 / Fold change vs veh, SNORA58 / RFU, C1orf63 / Fold change vs veh, C1orf63 / RFU, LRRFIP1 / Fold change vs veh, LRRFIP1 / RFU, NDUFAF7 / Fold change vs veh, NDUFAF7 / RFU, SLC12A2 / Fold change vs veh, SLC12A2 / RFU, IBTK / Fold change vs veh, IBTK / RFU, ESF1 / Fold change vs veh, ESF1 / Fold change vs veh, TMEM50B / RFU, TAOK1 / Fold change vs veh, TAOK1 / RFU, ACBD3 / Fold change vs veh, ACBD3 / RFU, TMA16 / Fold change vs veh, TMA16 / RFU, RWDD3 / Fold change vs veh, RWDD3 / RFU, BCAT1 / Fold change vs veh, BCAT1 / RFU, EDEM3 / Fold change vs veh, EDEM3 / RFU, TMEM33 / Fold change vs veh, TMEM33 / RFU, WDR75 / Fold change vs veh, WDR75 / RFU, AHCTF1 / Fold change vs veh, AHCTF1 / RFU, TFRC / Fold change vs veh, TFRC / RFU, ZDHHC17 / Fold change vs veh, ZDHHC17 / RFU, NOM1 / Fold change vs veh, NOM1 / RFU, ARL8B / Fold change vs veh, ARL8B / RFU, ZBTB11 / Fold change vs veh, ZBTB11 / RFU, TAMM41 / Fold change vs veh, TAMM41 / RFU, KIAA1704 /// LOC100996395 / Fold change vs veh, KIAA1704 /// LOC100996395 / RFU, ING1 / Fold change vs veh, ING1 / RFU, TRMT61B / Fold change vs veh, TRMT61B / RFU, FUBP3 / Fold change vs veh, FUBP3 / RFU, TP53 / Fold change vs veh, TP53 / RFU, TNKS2 / Fold change vs veh, TNKS2 / RFU, ZFP14 / Fold change vs veh, ZFP14 / RFU, ACTR2 / Fold change vs veh, ACTR2 / RFU, PPP3R1 / Fold change vs veh, PPP3R1 / RFU, PIK3R1 / Fold change vs veh, PIK3R1 / RFU, HNRNPA1 / Fold change vs veh, HNRNPA1 / RFU, RNF170 / Fold change vs veh, RNF170 / RFU, ZNF28 / Fold change vs veh, ZNF28 / RFU, RNGTT / Fold change vs veh, RNGTT / RFU, OGT / Fold change vs veh, OGT / RFU, BRD1 / Fold change vs veh, BRD1 / RFU, MARS / Fold change vs veh, MARS / RFU, ZNF655 / Fold change vs veh, ZNF655 / RFU, FAHD1 / Fold change vs veh, FAHD1 / RFU, BDP1 / Fold change vs veh, BDP1 / RFU, LRRCC1 / Fold change vs veh, LRRCC1 / RFU, ARID1A / Fold change vs veh, ARID1A / RFU, ZNF146 / Fold change vs veh, ZNF146 / RFU, ZNF330 / Fold change vs veh, ZNF330 / RFU, GPN3 / Fold change vs veh, GPN3 / RFU, C9orf123 / Fold change vs veh, C9orf123 / RFU, N4BP2L2 / Fold change vs veh, N4BP2L2 / RFU, ARFIP1 / Fold change vs veh, ARFIP1 / RFU, FAM179B / Fold change vs veh, FAM179B / RFU, BCL10 / Fold change vs veh, BCL10 / RFU, UHRF1BP1L / Fold change vs veh, UHRF1BP1L / RFU, BET1 / Fold change vs veh, BET1 / RFU, CNOT2 / Fold change vs veh, CNOT2 / RFU, ZNF268 / Fold change vs veh, ZNF268 / Fold change vs veh, ZNF507 / RFU, DGCR2 / Fold change vs veh, DGCR2 / RFU, WDSUB1 / Fold change vs veh, WDSUB1 / Fold change vs veh, HSP90B1 /// MIR3652 / RFU, ADSS / Fold change vs veh, ADSS / RFU, GK / Fold change vs veh, GK / RFU, ZNF148 / Fold change vs veh, ZNF148 / RFU, TAF9 / Fold change vs veh, TAF9 / RFU, SLC1A5 / Fold change vs veh, SLC1A5 / RFU, SLMO2 / Fold change vs veh, SLMO2 / RFU, ABCC4 / Fold change vs veh, ABCC4 / RFU, LOC101060439 /// RAP1B / Fold change vs veh, LOC101060439 /// RAP1B / RFU, RFX7 / Fold change vs veh, RFX7 / RFU, GTPBP10 / Fold change vs veh, GTPBP10 / RFU, CNEP1R1 / Fold change vs veh, CNEP1R1 / RFU, BIVM-ERCC5 /// ERCC5 / Fold change vs veh, BIVM-ERCC5 /// ERCC5 / RFU, ILF3 / Fold change vs veh, ILF3 / RFU 11762660_at / Fold change /veh 11762660_at / RFU VCAN (11757783_s_at) / Fold change /veh VCAN (11757783_s_at) / RFU DDX43 (11728927_at) / Fold change /veh DDX43 (11728927_at) / RFU KRT8 (11758188_x_at) / Fold change /veh KRT8 (11758188_x_at) / RFU NKD1 (11759106_at) / Fold change /veh NKD1 (11759106_at) / RFU SRD5A1 (11742802_a_at) / Fold change /veh SRD5A1 (11742802_a_at) / RFU TPSAB1 /// TPSB2 (11721975_s_at) / Fold change /veh TPSAB1 /// TPSB2 (11721975_s_at) / RFU GSTM3 (11746129_a_at) / Fold change /veh GSTM3 (11746129_a_at) / RFU IL23R (11737362_x_at) / Fold change /veh IL23R (11737362_x_at) / RFU TMEM51 (11727254_a_at) / Fold change /veh TMEM51 (11727254_a_at) / RFU PIWIL2 (11732686_x_at) / Fold change /veh PIWIL2 (11732686_x_at) / RFU ORM1 (11744905_x_at) / Fold change /veh ORM1 (11744905_x_at) / RFU CCDC152 (11743942_at) / Fold change /veh CCDC152 (11743942_at) / RFU ECM1 (11717891_a_at) / Fold change /veh ECM1 (11717891_a_at) / RFU IL23R (11748794_a_at) / Fold change /veh IL23R (11748794_a_at) / RFU TNFAIP8L3 (11732012_x_at) / Fold change /veh TNFAIP8L3 (11732012_x_at) / RFU MBOAT4 (11741988_at) / Fold change /veh MBOAT4 (11741988_at) / RFU 11764193_at / Fold change /veh 11764193_at / RFU TMEM53 (11763286_at) / Fold change /veh TMEM53 (11763286_at) / RFU MAGEB2 (11727129_at) / Fold change /veh MAGEB2 (11727129_at) / RFU TMEM200A (11744735_a_at) / Fold change /veh TMEM200A (11744735_a_at) / RFU CCDC152 (11751479_a_at) / Fold change /veh CCDC152 (11751479_a_at) / RFU FAM211A (11726209_a_at) / Fold change /veh FAM211A (11726209_a_at) / RFU RGS16 (11746705_a_at) / Fold change /veh RGS16 (11746705_a_at) / RFU VCAN (11755009_s_at) / Fold change /veh VCAN (11755009_s_at) / RFU RHOB (11743442_s_at) / Fold change /veh RHOB (11743442_s_at) / RFU RGS16 (11720943_a_at) / Fold change /veh RGS16 (11720943_a_at) / RFU RGS16 (11720944_at) / Fold change /veh RGS16 (11720944_at) / RFU, VPS4B / Fold change vs veh, VPS4B / RFU, CREB1 / Fold change vs veh, CREB1 / RFU, DNAJC13 / Fold change vs veh, DNAJC13 / RFU, GNAQ / Fold change vs veh, GNAQ / RFU, CDK5R1 / Fold change vs veh, CDK5R1 / RFU, ZRANB3 / Fold change vs veh, ZRANB3 / RFU, CUL4A / Fold change vs veh, CUL4A / RFU, CCNY / Fold change vs veh, CCNY / RFU, UFL1 / Fold change vs veh, UFL1 / RFU, COG3 / Fold change vs veh, COG3 / RFU, DIAPH2 / Fold change vs veh, DIAPH2 / RFU, SKA2 / Fold change vs veh, SKA2 / RFU, AFF3 / Fold change vs veh, AFF3 / RFU, LMF1 / Fold change vs veh, LMF1 / RFU, IPO11 / Fold change vs veh, IPO11 / RFU, DFFB / Fold change vs veh, DFFB / RFU, FOXP1 / Fold change vs veh, FOXP1 / RFU, CARD8 / Fold change vs veh, CARD8 / RFU, STRN3 / Fold change vs veh, STRN3 / RFU, ADK / Fold change vs veh, ADK / RFU, RASSF2 / Fold change vs veh, RASSF2 / RFU, WIPF1 / Fold change vs veh, WIPF1 / RFU, LARP1B / Fold change vs veh, LARP1B / RFU, RASA1 / Fold change vs veh, RASA1 / RFU, RB1 / Fold change vs veh, RB1 / RFU, PPFIA1 / Fold change vs veh, PPFIA1 / RFU, MAT2A / Fold change vs veh, MAT2A / RFU, CCT5 / Fold change vs veh, CCT5 / RFU, WDR92 / Fold change vs veh, WDR92 / RFU, CUX1 / Fold change vs veh, CUX1 / RFU, TTC7A / Fold change vs veh, TTC7A / RFU, TMEM135 / Fold change vs veh, TMEM135 / RFU, DEPTOR / Fold change vs veh, DEPTOR / RFU, CPM / Fold change vs veh, CPM / RFU, DNAJB6 / Fold change vs veh, DNAJB6 / RFU, CACNA2D3 / Fold change vs veh, CACNA2D3 / RFU, DTX4 / Fold change vs veh, DTX4 / RFU, TFCP2 / Fold change vs veh, TFCP2 / RFU, GMCL1 /// GMCL1P1 / Fold change vs veh, GMCL1 /// GMCL1P1 / RFU, AEBP2 / Fold change vs veh, AEBP2 / RFU, SNHG1 /// SNORD22 /// SNORD25 /// SNORD26 /// SNORD27 /// SNORD28 /// SNORD29 /// SNORD31 / Fold change vs veh, SNHG1 /// SNORD22 /// SNORD25 /// SNORD26 /// SNORD27 /// SNORD28 /// SNORD29 /// SNORD31 / Fold change (Aza/veh), C12orf56 (ProbeSet 11735607_a_at) / Fold change (ACY-1035/veh), C12orf56 (ProbeSet 11735607_a_at) / Fold change (Aza/veh), FGFR1OP (ProbeSet 11751329_s_at) / Fold change (ACY-1035/veh), FGFR1OP (ProbeSet 11751329_s_at) / Fold change (Aza/veh), VPS36 (ProbeSet 11739960_a_at) / Fold change (ACY-1035/veh), VPS36 (ProbeSet 11739960_a_at) / RFU SYPL1 (11715823_x_at) / Fold change /veh SYPL1 (11715823_x_at) / RFU IGFBP7 (11715501_s_at) / Fold change /veh IGFBP7 (11715501_s_at) / RFU REEP3 (11722064_at) / Fold change /veh REEP3 (11722064_at) / RFU IGLL1 (11728026_x_at) / Fold change /veh IGLL1 (11728026_x_at): dose or concentration left out as unconfirmed
Conditions: MV-4-11 cells, 48 hours

Nc1ccc(-c2cccs2)cc1NC(=O)c1ccc2c(c1)cc(C1CC1)n2CCN1CCOCC1 [ACY-1035]
RFU JSRP1 (11732532_at): 43.67 RFU
